From patent US10682330B2, “Method for producing liposome encapsulating paclitaxel monoglycoside and/or docetaxel monoglycoside” (ENSUIKO SUGAR REFINING CO., LTD., priority 2012, dated 2020)
In brackets after ≈: the same amount, converted by molar mass.

Experiments:
[1] = Encapsulation efficiency and loading efficiency in liposome by HPLC (Test Example 2); format: physicochemical; conditions: drug solution in 40% EG (1 mg/mL), comparative example
Procedure: Subsequently, after the eggplant flask was immersed in a hot bath at 60° C. for five minutes, a gPTX solution (1 ml) (Cremophor:ethanol:ultra-pure water=12:12:76, volume ratio) adjusted to a concentration of 20 mg/ml, or a PTX solution (Cremophor:ethanol:ultra-pure water=12:12:76, volume ratio) at a concentration of 2 mg/ml was added thereto to dissolve the lipid film, thus preparing a multilamellar vesicle (MLV).
In a comparative example, the above-mentioned 1 mg/ml gPTX solution (10 mM phosphate buffer containing 40% (volume) ethylene glycol) was used in place of the 20 mg of gPTX solution to encapsulate gPTX in a liposome.
The efficiency of paclitaxel monoglycoside encapsulated in the obtained liposome or immunoliposome was calculated as follows. First, the standard curve of each of the gPTX and PTX was obtained. […]
Next, 0.1% Triton X-100 ( 1/10 volume) was added to a prepared liposome, and the liposome was broken by sonication. Thereafter, the solution (10 μl) was measured by HPLC, and the encapsulated drug amount was obtained using the standard curve. […]
Using the following formulae (1) and (2), the encapsulation efficiency (EE) and loading efficiency (LE) were calculated based on the obtained drug amount. […]

[2] = test system: SK-BR-3, human-derived breast cancer cell; test: Anti-cancer activity, MTT assay on SK-BR-3 (Test Example 9); format: cell-based; conditions: for IC50: Homo sapiens; for IC50 / IT50: SK-BR-3; for IC50 / IC100: SK-BR3, 72 hours; for IT50: drug added at IC100
Procedure: (§1) In the same manner as in Test Example 3, anti-cancer activity was measured. SK-BR-3, which is a human-derived breast cancer cell, and HT-29, which is a colon adenocarcinoma cell, were used. Specifically, cells were seeded to a 96 well-plate at 5000 cells/well, and incubated for 24 hours. Then, PTX, gPTX, gPTX-L, and gPTX-IL were separately added at different concentrations, followed by incubation.
(§2) 72 hours later, the percentage of cell viability was calculated by an MTT assay. First, the concentration (IC50) at which 50% of the cells die was obtained from the survival curve. Subsequently, the time (IT50) at which 50% of the cells die was obtained from the survival curve. After the cells were seeded, PTX, gPTX, gPTX-L, or gPTX-IL was added at a concentration attaining IC100, which was obtained from the survival curve. Incubation was then performed for 1, 2, 6, 12, 24, 48, or 72 hours, and then medium exchange was performed. 72 hours after the drug addition, the MTT assay was performed in the same manner as in the above experiment to obtain the survival rate, and calculate the IT50 therefrom.

[3] = test system: SK-BR-3, human-derived breast cancer cell; test: Anti-cancer activity, MTT assay (Test Example 3); format: cell-based; conditions: PTX, gPTX dissolved in DMSO, liposomes prepared with gPTX in 40% ethylene glycol solution; for IC50: Homo sapiens
Procedure: IC50 of each of the PTX and gPTX dissolved in DMSO, and gPTX-L and gPTX-IL prepared by using gPTX dissolved in a 40% (volume) ethylene glycol solution was measured by an MTT assay. As a test target cell, SK-BR-3, which is a human-derived breast cancer cell, was used. IT50 was also calculated. IT50 indicates the half of time required for attaining the drug concentration at which all of the cells die, and can be easily calculated based on the survival curve obtained by plotting the percentage of cell viability to the time axis.

[4] = Solubility in mixed solvent Cremophor EL:ethanol:PBS (pH 7.4) 12:12:76 (Test Example 1); format: physicochemical; conditions: for solubility: Cremophor EL:ethanol:PBS 12:12:76 mixed solvent, pH 7.4, aqueous with cosolvent or surfactant or cyclodextrin, ethanol, Cremophor EL, PBS pH 7.4 (12:12:76); for Concentration at which dissolved: Cremophor:ethanol:PBS (pH 7.4) 12:12:76
Procedure: Powdery gPTX and paclitaxel (hereinbelow, referred to as PTX in the Examples) produced by the method disclosed in NPL 1 were individually weighed in predetermined amounts, followed by addition of ethanol (120 μL) and mixing using a vortex. Cremophor® EL (available from Wako Pure Chemical Industries. Ltd.) (120 μL) was further mixed with each solution liquid, and then PBS (pH 7.4, 760 μL) was mixed. The solubility of each of the gPTX and PTX was confirmed.

[5] = test system: HT-29, colon adenocarcinoma cell; test: Anti-cancer activity, MTT assay on HT-29 (Test Example 9); format: cell-based; conditions: for IC100 / IC50: 72 hours; for IC50: Homo sapiens; for IT50: drug added at IC100
Procedure: as §1, §2

[6] = Solubility in 10 mM phosphate buffer containing 10 to 40% ethylene glycol (Test Example 1); format: physicochemical; conditions: aqueous with cosolvent or surfactant or cyclodextrin
Procedure: In all cases, gPTX was mixed so that the concentration became 1 mg/mL.

[7] = test system: ICR-nu/nu mouse; test: Body weight shift and survival in HT-29 bearing mice (Test Example 11); format: in vivo; conditions: total dose of gPTX 150 mg/kg; N=4
Text: (§3) HT-29 cells were subcutaneously administered at 3.0×10^6 cells to each ICR-nu/nu mouse (male, 5 weeks old). When the tumor volume became about 50 to 200 mm^3, the above gPTX, the gPTX-L produced in Test Example 7, the gPTX-IL produced in Test Example 9, trastuzumab, the liposome (empty L) encapsulating no gPTX and having no antibody (trastuzumab) produced in Test Example 9, the liposome (empty IL) encapsulating […] and having an antibody (trastuzumab) produced in Test Example 9, a CEP buffer, or PBS was administered via tail vein two times at an interval of 3 hours (N=4). The dose per each was 200 μl/20 g. The total dose of gPTX was 150 mg/kg, and the total dose of trastuzumab was 200 mg/kg. The tumor volume shift after administration was observed. […] The tumor volume was calculated from the formula (3) below. Tumor volume=(tumor smallest diameter^2×tumor longest diameter)/2 (3)
The body weight shift and the survival rate in each group were measured. FIGS. 6 to 9 show the results.

[8] = test system: BALB/c mouse; conditions: in vivo
Procedure: Specifically, gPTX, gPTX-L, a CEP buffer (Cremophor:ethanol:ultra-pure water=12:12:76; volume ratio), or PBS was administered via tail vein to each BALB/c mouse (female, 6 weeks old) two times with an interval of three hours (N=4). The dose per each was 200 μl/20 g. The total dose of gPTX was 150 or 100 mg/kg in view of gPTX. Observation over time was performed during and after the administration.

[9] = test system: HT-29 tumor; test: In vivo anti-cancer activity, tumor volume (Test Example 11); set-up: species or system ICR-nu/nu mouse; conditions: tail vein two times, interval 3 hours; total gPTX 150 mg/kg, trastuzumab 200 mg/kg; N=4
Text: as §3

Structure (SMILES)	IC50 [2] [nM]	IC100 [2] [nM]	IT50 [2] [h]	IC50 [3] [nM]	IT50 [3] [h]	solubility ([4]; Concentration 2 mg/ml) [µg/mL]	solubility ([4]; Concentration 10 mg/ml) [µg/mL]	solubility ([4]; Concentration 20 mg/ml) [µg/mL]	Concentration at which dissolved [4]	IC100 [5] [nM]	IC50 [5] [nM]	IT50 [5] [h]	also measured
CC(=O)O[C@H]1C(=O)[C@@]2(C)[C@H]([C@H](OC(=O)c3ccccc3)[C@]3(O)C[C@H](OC(=O)[C@H](O)[C@@H](NC(=O)c4ccccc4)c4ccccc4)C(C)=C1C3(C)C)[C@]1(OC(C)=O)CO[C@@H]1C[C@@H]2O [PTX, paclitaxel]	5.5 ± 1.3	30	9.8	5.91	15.9	> 2000	< 3000	< 3000	about 2 mg/ml	10	1.3 ± 0.5	11.9	EE (encapsulation efficiency) [1]: not encapsulated in the liposome; solubility ([4]; Concentration 3 mg/ml): < 3000 µg/mL
CC(=O)O[C@H]1C(=O)[C@@]2(C)C([C@H](OC(=O)c3ccccc3)[C@@]3(O)CC1=C(C)C(OC(=O)[C@H](O)[C@@H](NC(=O)c1ccccc1)c1ccccc1)C3)[C@]1(OC(C)=O)CO[C@@H]1C[C@H]2OC(=O)COC1OC(CO)C(O)C(O)C1O (stereo partly drawn) [gPTX, 7-α-glucosyloxyacetylpaclitaxel]	18.9 ± 1.1	100	8.3	46	18.7	> 20000	> 20000	> 20000	20000 µg/mL	50	11 ± 0.8	9.6	solubility ([6]; Ethylene glycol (EG) 10%, 10 mM phosphate buffer, read-out: Solubility of 1 mg/mL gPTX): < 1000 µg/mL; solubility ([6]; Ethylene glycol (EG) 20%, 10 mM phosphate buffer, read-out: Solubility of 1 mg/mL gPTX): < 1000 µg/mL; solubility ([6]; Ethylene glycol (EG) 30%, 10 mM phosphate buffer, read-out: Solubility of 1 mg/mL gPTX): < 1000 µg/mL; solubility ([6]; Ethylene glycol (EG) 40%, 10 mM phosphate buffer, read-out: Solubility of 1 mg/mL gPTX): > 1000 µg/mL; solubility ([6]; PBS containing 40% (volume) ethylene glycol, read-out: Solubility of gPTX): ~1000 µg/mL (≈ 956 µM); Body weight shift [7]: remarkable body weight loss; Deaths after administration [7]: two mice died in three hours after the administration, and one died one week after the administration; solubility ([4]; Concentration 30 mg/ml): < 30000 µg/mL; Body weight change (FIG. 4) [8]: significant body weight loss; Mice dead one day after the administration (FIG. 3) [8]: three; Tumor growth inhibition effect (tumor volume) [9]: remarkably excellent anti-tumor growth inhibition effect
